According to US10131652B2, “Pyrimidinyloxy benzene derivatives as herbicides” (E. I. DU PONT DE NEMOURS AND COMPANY, priority 2014, dated 2018):
Where two headings read alike, the source gives them in different places.

Experiments:
Format in all cases: in vivo
[1] = test system: giant foxtail (Setaria faberii); test: Test B pre-/postemergence plant response; settings: for pest or weed control at 31 g/ha: 31 g ai/ha
Method in brief: (§1)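 Greenhouse pots, loam/sand soil; compound formulated with surfactant in non-phytotoxic solvent. Preemergence soil spray and postemergence spray at 1–2 leaf stage run simultaneously. Visual injury, 0–100, about 10 days post-treatment.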

[2] = test system: pigweed (Amaranthus retroflexus); test: Test B pre-/postemergence plant response; settings: for pest or weed control at 31 g/ha: 31 g ai/ha
Method in brief: as §1

[3] = test system: wheat (Triticum aestivum); test: Test B pre-/postemergence plant response; settings: Triticum aestivum, post-emergence, 240 h, read-out: Plant response rating, Wheat
Method in brief: as §1

[4] = test system: barnyardgrass (Echinochloa crus-galli); test: Test B pre-/postemergence plant response; settings: for pest or weed control at 31 g/ha: 31 g ai/ha
Method in brief: as §1

corn (Zea mays) = test: Test B pre-/postemergence plant response; settings: Zea mays, post-emergence, 240 h
Method in brief: as §1

[5] = test system: morningglory (Ipomoea coccinea); test: Test D pre-/postemergence plant response; settings: Ipomoea; for pest or weed control at 31 g/ha: 31 g ai/ha; for pest or weed control at 62 g/ha: 62 g ai/ha; for pest or weed control at 125 g/ha: 125 g ai/ha
Method in brief: (§2)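 Sown seed (loam/sand soil) treated preemergence; emerged plants, 1- to 4-leaf stage and 2 to 18 cm, treated postemergence in peat/vermiculite medium. Greenhouse incubation 13–15 d. Endpoint: visual 0–100 rating versus untreated.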

[6] = test system: giant foxtail (Setaria faberii); test: Test D pre-/postemergence plant response; settings: Setaria faberi; for pest or weed control at 16 g/ha: 16 g ai/ha; for pest or weed control at 31 g/ha: 31 g ai/ha; for pest or weed control at 62 g/ha: 62 g ai/ha; for pest or weed control at 125 g/ha: 125 g ai/ha
Method in brief: as §2

[7] = test system: waterhemp (common waterhemp, Amaranthus rudis); test: Test D pre-/postemergence plant response; settings: Amaranthus tuberculatus; for pest or weed control at 31 g/ha: 31 g ai/ha; for pest or weed control at 62 g/ha: 62 g ai/ha; for pest or weed control at 125 g/ha: 125 g ai/ha
Method in brief: as §2

[8] = test system: large (Lg) crabgrass (Digitaria sanguinalis); test: Test D pre-/postemergence plant response; settings: Digitaria sanguinalis; for pest or weed control at 16 g/ha: 16 g ai/ha; for pest or weed control at 31 g/ha: 31 g ai/ha; for pest or weed control at 62 g/ha: 62 g ai/ha; for pest or weed control at 125 g/ha: 125 g ai/ha
Method in brief: as §2

[9] = test system: pigweed (Amaranthus retroflexus); test: Test D pre-/postemergence plant response; settings: Amaranthus retroflexus, post-emergence, Postemergence
Method in brief: as §2

[10] = Preemergence, 125 g ai/ha, 0 to 100 scale (0 no effect, 100 complete control)
[11] = 125 g ai/ha, postemergence, 0 to 100 scale, 0 no effect, 100 complete control
[12] = Postemergence, 31 g ai/ha, 0 to 100 scale (0 no effect, 100 complete control)
[13] = post-emergence, Postemergence, scale 0 to 100, 0 no effect, 100 complete control, read-out: Plant response rating, Morningglory
[14] = pre-emergence, Preemergence, scale 0 to 100 (0 no effect, 100 complete control), read-out: Plant response rating, Morningglory
[15] = post-emergence, Postemergence, scale 0 to 100 (0 no effect, 100 complete control), read-out: Foxtail, Giant plant response rating
[16] = post-emergence, Postemergence, scale 0 to 100, 0 no effect, 100 complete control, read-out: Plant response rating, Foxtail, Giant
[17] = pre-emergence, Preemergence, scale 0 to 100 (0 no effect, 100 complete control), read-out: Plant response rating, Foxtail, Giant
[18] = post-emergence, Postemergence, scale 0 to 100, 0 no effect, 100 complete control, read-out: Plant response rating, Waterhemp
[19] = pre-emergence, Preemergence, scale 0 to 100 (0 no effect, 100 complete control), read-out: Plant response rating, Waterhemp
[20] = post-emergence, Postemergence, scale 0 to 100 (0 no effect, 100 complete control), read-out: Crabgrass, Large plant response rating
[21] = post-emergence, Postemergence, scale 0 to 100, 0 no effect, 100 complete control, read-out: Plant response rating, Crabgrass, Large
[22] = pre-emergence, Preemergence, scale 0 to 100 (0 no effect, 100 complete control), read-out: Plant response rating, Crabgrass, Large

Fc1cccc(Oc2ncc(Br)cn2)c1-c1cc(C(F)F)no1 [Compound 145, 5-bromo-2-[2-[3-(difluoromethyl)-5-isoxazolyl]-3-fluorophenoxy]pyrimidine]
Foxtail, Giant plant response rating [1, 10]: 100 | pest or weed control at 125 g/ha ([1]; Setaria faberi, post-emergence, 240 h, 125 g ai/ha, postemergence, 0 to 100 scale, 0 no effect, 100 complete control, read-out: Plant response rating, Foxtail, Giant): 90% | pest or weed control at 31 g/ha ([1]; Setaria faberi, post-emergence, 240 h, Postemergence, 0 to 100 scale (0 no effect, 100 complete control), read-out: Plant response rating, Foxtail, Giant): 70% | pest or weed control at 31 g/ha ([1]; Setaria faberi, pre-emergence, 240 h, Preemergence, 0 to 100 scale where 0 is no effect and 100 is complete control, read-out: Plant response rating, Foxtail, Giant): 90% | pest or weed control at 125 g/ha ([2]; Amaranthus retroflexus, post-emergence, 240 h, 125 g ai/ha, postemergence, 0 to 100 scale, 0 no effect, 100 complete control, read-out: Plant response rating, Pigweed): 100% | pest or weed control at 31 g/ha ([2]; Amaranthus retroflexus, post-emergence, 240 h, Postemergence, 0 to 100 scale (0 no effect, 100 complete control), read-out: Plant response rating, Pigweed): 100% | pest or weed control at 31 g/ha ([2]; Amaranthus retroflexus, pre-emergence, 240 h, Preemergence, 0 to 100 scale where 0 is no effect and 100 is complete control, read-out: Plant response rating, Pigweed): 100% | Pigweed plant response rating [2, 10]: 100 | plant injury at 125 g/ha [3, 11]: 70% | plant injury at 31 g/ha [3, 12]: 20% | pest or weed control at 125 g/ha ([4]; Echinochloa crus-galli, post-emergence, 240 h, 125 g ai/ha, postemergence, 0 to 100 scale, 0 no effect, 100 complete control, read-out: Plant response rating, Barnyardgrass): 100% | pest or weed control at 31 g/ha ([4]; Echinochloa crus-galli, post-emergence, 240 h, Postemergence, 0 to 100 scale (0 no effect, 100 complete control), read-out: Plant response rating, Barnyardgrass): 40% | pest or weed control at 31 g/ha ([4]; Echinochloa crus-galli, pre-emergence, 240 h, Preemergence, 0 to 100 scale where 0 is no effect and 100 is complete control, read-out: Plant response rating, Barnyardgrass): 70% | Barnyardgrass plant response rating [4, 10]: 100 | Corn plant response rating (crop injury, 0 = no effect, 100 = complete kill) at 125 g/ha (corn (Zea mays); [11]): 70% | Corn plant response rating (crop injury, 0 = no effect, 100 = complete kill) at 31 g/ha (corn (Zea mays); [12]): 30% | pest or weed control at 31 g/ha ([5]; post-emergence, Postemergence, scale 0 to 100 (0 no effect, 100 complete control), read-out: Morningglory plant response rating): 85% | pest or weed control at 62 g/ha [5, 13]: 85% | pest or weed control at 125 g/ha [5, 13]: 80% | pest or weed control at 125 g/ha ([5]; pre-emergence, Preemergence, read-out: Plant response rating (scale 0 to 100), Morningglory): 100% | pest or weed control at 16 g/ha ([5]; pre-emergence, Preemergence, 16 g ai/ha, scale 0 to 100 (0 no effect, 100 complete control), read-out: Plant response rating, Morningglory): 15% | pest or weed control at 31 g/ha [5, 14]: 55% | pest or weed control at 62 g/ha [5, 14]: 90% | pest or weed control at 16 g/ha [6, 15]: 5% | pest or weed control at 31 g/ha [6, 15]: 10% | pest or weed control at 62 g/ha [6, 16]: 20% | pest or weed control at 125 g/ha [6, 16]: 20% | pest or weed control at 125 g/ha ([6]; pre-emergence, Preemergence, read-out: Plant response rating (scale 0 to 100), Foxtail, Giant): 100% | pest or weed control at 16 g/ha [6, 17]: 85% | pest or weed control at 31 g/ha [6, 17]: 100% | pest or weed control at 62 g/ha [6, 17]: 100% | pest or weed control at 31 g/ha ([7]; post-emergence, Postemergence, scale 0 to 100 (0 no effect, 100 complete control), read-out: Waterhemp plant response rating): 90% | pest or weed control at 62 g/ha [7, 18]: 100% | pest or weed control at 125 g/ha [7, 18]: 100% | pest or weed control at 125 g/ha ([7]; pre-emergence, Preemergence, read-out: Plant response rating (scale 0 to 100), Waterhemp): 100% | pest or weed control at 16 g/ha ([7]; pre-emergence, Preemergence, 16 g ai/ha, scale 0 to 100 (0 no effect, 100 complete control), read-out: Plant response rating, Waterhemp): 100% | pest or weed control at 31 g/ha [7, 19]: 100% | pest or weed control at 62 g/ha [7, 19]: 100% | pest or weed control at 16 g/ha [8, 20]: 5% | pest or weed control at 31 g/ha [8, 20]: 10% | pest or weed control at 62 g/ha [8, 21]: 10% | pest or weed control at 125 g/ha [8, 21]: 20% | pest or weed control at 125 g/ha ([8]; pre-emergence, Preemergence, read-out: Plant response rating (scale 0 to 100), Crabgrass, Large): 100% | pest or weed control at 16 g/ha [8, 22]: 85% | pest or weed control at 31 g/ha [8, 22]: 100% | pest or weed control at 62 g/ha [8, 22]: 100% | pest or weed control at 31 g/ha ([9]; 31 g ai/ha, scale 0 to 100 (0 no effect, 100 complete control), read-out: Pigweed plant response rating): 95% | pest or weed control at 62 g/ha ([9]; 62 g ai/ha, scale 0 to 100, 0 no effect, 100 complete control, read-out: Plant response rating, Pigweed): 98%
